Data from patent publication US7592367B2, “Compounds from Garcinia hanburyi, their use in treating cancer and method of separating epimers thereof” (priority 2005, dated 2009).
Where two headings read alike, the source gives them in different places.

Columns and labels:
[1] = tested on: doxorubicin-resistant K562 (K562/R) cell line; assay: MTT cytotoxicity assay, doxorubicin-resistant K562; type: cell-based, human; details: read-out: Cytotoxicity IC50 against K562/R
Procedure: MTT assay was performed using a reported method. […] Absorbance of untreated controls was taken as 100%. […] An aliquot of the supernatant was analyzed by HPLC.

[2] = tested on: human cytochrome P-450 enzymes (1A2, 2A6, 2D6, 2E1, 3A4); assay: CYP inhibition in human liver microsomes, five isoforms other than CYP2C9; type: in vitro ADME; details: probe reactions
[3] = tested on: human leukemia K562 (K562/S) cell line; assay: MTT cytotoxicity assay, doxorubicin-sensitive K562
Procedure: Both doxorubicin-resistant (K562/R) and -sensitive K562 (K562/S) cell sublines, purchased from Tianjin Instute of Hematopathy, the Chinese Academy of Medical Sciences, China, were cultured in PRMI1640 (Gibco, USA) medium and supplemented with 10 fetal bovine serums at 37° C. in a humidified incubator with 5% CO2. MTT assay was performed using a reported method [12]. Cell lines were seeded into 96-well plates at 6000 viable cells per well. The test chemicals (ADR, DMSO, Th1 and Th2) with different concentrations were loaded in a final volume of 200 μL per well. After 44 hours of incubation, MTT (5 g/L) was added to each well in a volume of 10 μl and incubated for 4 hours. Afterwards, the medium was removed and 200 μl of Me2SO (37° C.) was added and shaken for 5 minutes. A 96-well microtiter plate reader was used to determine absorbance values at 570 nm. Mean value of each concentration (n=3 wells) was obtained. Absorbance of untreated controls was taken as 100%. Survival rate was calculated as follows: Cell survival rate (%)=(T−B)/(U−B)×100%, T (treated) is absorbance of chemically treated cells, U (untreated) is the absorbance of untreated cells, and B (blank) is the absorbance when neither cells nor chemicals was added.

[4] = tested on: doxorubicin-resistant K562 (K562/R) cell line
Procedure: (§1) Cytotoxicity Assay: Both epimers were tested for their cytotoxicities against human leukemia K562 (K562/S) and doxorubicin-resistant K562 (K562/R) cell lines, using the SRB method previously described with doxorubicin being the positive control. The OD data were recorded in X±S, and the IC50 values were calculated with sigmoidal plot.

[5] = tested on: human leukemia K562 (K562/S) cell line
Procedure: as §1

[6] = target: T1, CYP2C9 (Homo sapiens, UniProt P11712); type: in vitro ADME; details: microsomes
T1 construct: HLM were prepared from liver tissue as described in the literature [13]; from tissue; host or cells: human liver microsomes prepared from an autopsy liver sample (person)

[7] = tested on: doxorubicin-resistant K562 (K562/R) cell line; assay: SRB cytotoxicity assay, doxorubicin-resistant K562; details: Homo sapiens, K-562R, read-out: Cytotoxicity IC50 against K562/R
Procedure: as §1

[8] = tested on: human leukemia K562 (K562/S) cell line; assay: SRB cytotoxicity assay, K562/S; details: K562, read-out: Cytotoxicity IC50 against K562/S
Procedure: as §1

[9] = Homo sapiens, K562, read-out: Cytotoxicity IC50 against K562/S

T1 sequence (P11712 whole entry): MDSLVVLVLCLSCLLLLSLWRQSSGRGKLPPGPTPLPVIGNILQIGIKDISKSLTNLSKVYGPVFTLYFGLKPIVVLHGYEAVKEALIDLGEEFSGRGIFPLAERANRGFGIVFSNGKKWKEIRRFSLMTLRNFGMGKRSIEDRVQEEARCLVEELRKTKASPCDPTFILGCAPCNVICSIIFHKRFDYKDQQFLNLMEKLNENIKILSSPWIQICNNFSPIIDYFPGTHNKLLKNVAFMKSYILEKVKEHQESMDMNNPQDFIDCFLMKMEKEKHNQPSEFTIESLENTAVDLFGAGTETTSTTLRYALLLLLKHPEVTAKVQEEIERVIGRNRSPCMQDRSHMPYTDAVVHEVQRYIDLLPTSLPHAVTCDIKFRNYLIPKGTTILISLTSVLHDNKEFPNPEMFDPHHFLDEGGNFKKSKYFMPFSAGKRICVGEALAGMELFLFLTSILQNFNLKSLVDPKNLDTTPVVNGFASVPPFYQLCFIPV

| IC50 [4] | IC50 [5] | Compound | Inhibitory effect toward five human cytochrome P-450 enzymes other than CYP2C9 [2] | IC50 [3, 9] | further results |
| --- | --- | --- | --- | --- | --- |
|  |  | CC(C)=CCC[C@]1(C)C=Cc2c(O)c3c(c(CC=C(C)C)c2O1)O[C@]12C(=C[C@@H]4C[C@H]1C(C)(C)O[C@@]2(C/C=C(/C)C(=O)O)C4=O)C3=O (single isomer, unassigned) [Epimer 1, gambogic acid] | little inhibitory effects | 890 nM | IC50 ([1]; Homo sapiens, K-562R): 1320 nM |
| 2890 ± 350 nM | 1270 ± 150 nM | 30-hydroxygambogic acid [compound 1] |  |  |  |
| 4490 ± 310 nM | 3610 ± 170 nM | 30-hydroxyepigambogic acid [compound 2] |  |  |  |
|  |  | CC(C)=CCCC1(C)C=Cc2c(O)c3c(c(CC=C(C)C)c2O1)OC12C(=CC4CC1C(C)(C)OC2(CC=C(C)C(=O)O)C4=O)C3=O (single isomer, unassigned; epimer 2) [Epimer 2, epigambogic acid] | little inhibitory effects |  | IC50 ([1]; doxorubicin-resistant K562/R, Example 1 MTT assay, Table 4 columns marked ^a): 1110 nM; IC50 ([3]; read-out: Cytotoxicity IC50 against K562/S, K562/S, Example 1 MTT assay, Table 4 columns marked ^a): 860 nM; CYP2C9 inhibitory effect, S-epimer relative to R-epimer [6]: 20 folds |
|  |  | COc1cccc2c1C(=O)c1c(O)c3c(c(O)c1C2=O)C[C@@](O)(C(=O)CO)C[C@@H]3O[C@H]1C[C@H](N)[C@H](O)[C@H](C)O1 [Doxorubicin, doxorubicin, reference compound] |  | 660 nM | IC50 ([1]; Homo sapiens, K-562R, doxorubicin-resistant K562/R, Example 1 MTT assay, Table 4 columns marked ^a): 10800 nM; IC50 [7]: 1790 ± 170 nM; IC50 [8]: 110 ± 10 nM |
